From patent US11617777B2, “Cytotoxic and anti-mitotic compounds, and methods of using the same” (ZYMEWORKS BC INC., priority 2013, dated 2023) come the findings set out here.

For orientation: EC50 means the concentration needed to bring the measured effect to its halfway point.

For one experiment, the system named is Jurkat cells. In words: Cytotoxicity of compounds, CellTiter-Glo. The conditions noted are these: Homo sapiens, Jurkat, Table 3; Cytotoxicity of Compounds on Jurkat Cells; read-out: EC50. It is filed as cell-based, Human. The source says: Cell lines used: Human T-cell leukemia cell line Jurkat (ATCC: TIB-152); HCC1954 (ATCC: CRL. 2338); Human Pancreatic cells lines: AsPC-1 (ATCC: CRL-1682), BxPC-3 (ATCC: CRL.1687), HPAF-II (ATCC: CRL.1997), MiaPaCa2 (ATCC: CRL.1420), PANC-1 (ATCC: CRL.1469), Capan-1 (ATCC: HTB-79), Capan-2 (ATCC: HTB-80) and the Human gastric carcinoma cell line NCI-N87 (ATCC: CRL. 5822); AML-193 (ATCC: CRL.9589), CCRF-CEM (ATCC: CCL-119), DU145 (ATCC: HTB-81), PC-3 (ATCC: CRL.1435), A-431 (ATCC: CRL.1555), HT-29 (ATCC: HTB-38), A-172 (ATCC: CRL.1620), NCI-H358 (ATCC: CRL.5807), A549 (ATCC: CCL-185), Colo-205 (ATCC: CCL-222), MDA-MB-231 (ATCC: HTB-26), OVCAR-3 (ATCC: HTB-161), OV-90 (ATCC: CRL.11732), OE19 (Sigma: 96071721), RT 112/84 (Sigma: 85061106).
On the day prior to adding compounds, HCC1954 AsPC-1, BxPC-3, HPAF-II, MiaPaCa2, PANC-1, Capan-1, Capan-2 and NCI-N87 cells were added to opaque-walled 96-well tissue culture-treated microtiter plates using complete growth medium at a density of 2500 cells/100 microlitre (uL) of medium. These adherant cell lines cells were incubated for one night at 37° C./5% CO2 to allow the cells to attach to the microtiter plate surface. On the day that compounds were added, Jurkat cells are added to separate 96-well microtiter plates at 2500 cells/100 uL using the same growth medium as HCC1954. Compound were first serially diluted using dimethyl sulfoxide, and then the prepared dilutions are added to complete growth medium at five-times the final concentration—compounds were then titrated 1:3, eight steps. A control with no compound (growth medium alone) was included on each microtiter plate in sextuplicate. The prepared compounds titrations were added (twenty-five uL/well) in triplicate. The cells and compound titrations were incubated at 37° C./5% CO2 for three nights. After the incubation, cell viability is measured using CellTiter-Glo® reagent by adding thirty uL of prepared CellTiter-Glo® to each assay well. The assay is incubated for at least twenty minutes in the dark prior to measuring emitted luminescence using a microplate luminometer (500 ms integration time). The collected relative luminescence units (RLU) are converted to % cytotoxicity using the Growth medium alone control mentioned above (% Cytotoxicity=1−[Well RLU/average medium alone control RLU]).
GraphPad Prism was used for generation of EC50 values using three parameter non-linear regression curve fitting.
In general terms: In ATP-based viability assays light output follows the ATP content of the culture.
`CN[C@H](C(=O)N[C@H](C(=O)N(C)[C@H](/C=C(\C)C(=O)NS(=O)(=O)c1cc(C(=O)OC)ccc1Cl)C(C)C)C(C)(C)C)C(C)(C)c1ccccc1` [Compound 74, methyl 4-chloro-3-(N—((S,E)-2,5-dimethyl-4-((S)—N,3,3-trimethyl-2-((S)-3-methyl-2-(methylamino)-3-phenylbutanamido)butanamido)hex-2-enoyl)sulfamoyl)benzoate]: the EC50 stood at 0.087 nM.

For the compound `CN[C@H](C(=O)N[C@H](C(=O)N(C)[C@H](/C=C(\C)C(=O)NS(=O)(=O)Cc1ccc(CNC(=O)C(F)(F)F)cc1)C(C)C)C(C)(C)C)C(C)(C)c1ccccc1` [Compound 76, (S,E)-2,5-dimethyl-N-(4-((2,2,2-trifluoroacetamido)methyl)benzylsulfonyl)-4-((S)—N,3,3-trimethyl-2-((S)-3-methyl-2-(methylamino)-3-phenylbutanamido)butanamido)hex-2-enamide], the EC50 is 0.328 nM.

On to `CN[C@H](C(=O)N[C@H](C(=O)N(C)[C@H](/C=C(\C)C(=O)NS(=O)(=O)c1ccc(CNC(=O)C(F)(F)F)cc1)C(C)C)C(C)(C)C)C(C)(C)c1ccccc1` [Compound 84, (S,E)-2,5-dimethyl-N-(4-((2,2,2-trifluoroacetamido)methyl)phenylsulfonyl)-4-((S)—N,3,3-trimethyl-2-((S)-3-methyl-2-(methylamino)-3-phenylbutanamido)butanamido)hex-2-enamide], for which the EC50 amounted to 1.39 nM.

On to `CN[C@H](C(=O)N[C@H](C(=O)N(C)[C@H](/C=C(\C)C(=O)NS(=O)(=O)c1ccccc1NC(=O)C(F)(F)F)C(C)C)C(C)(C)C)C(C)(C)c1ccccc1` [Compound 97, (S,E)-2,5-dimethyl-N-(2-(2,2,2-trifluoroacetamido)phenylsulfonyl)-4-((S)—N,3,3-trimethyl-2-((S)-3-methyl-2-(methylamino)-3-phenylbutanamido)butanamido)hex-2-enamide], for which the half-maximal effective concentration (EC50) came to 1.62 nM.

The same experiment, now with this note: Homo sapiens, Jurkat, Table 6; Compound Cytotoxicity on Jurkat; read-out: EC50.
Regarding `CN[C@H](C(=O)N[C@H](C(=O)N(C)[C@H](/C=C(\C)C(=O)NS(=O)(=O)CCc1ccc([N+](=O)[O-])cc1)C(C)C)C(C)(C)C)C(C)(C)c1ccccc1` [Compound 73, (S,E)-2,5-dimethyl-N-(4-nitrophenethylsulfonyl)-4-((S)—N,3,3-trimethyl-2-((S)-3-methyl-2-(methylamino)-3-phenylbutanamido)butanamido)hex-2-enamide], the EC50 came out at 2.68 nM.

As for `CN[C@H](C(=O)N[C@H](C(=O)N(C)[C@H](/C=C(\C)C(=O)NS(=O)(=O)Cc1ccccc1)C(C)C)C(C)(C)C)C(C)(C)c1ccc(-c2ccc(OC)cc2)cc1` [Compound 88, (S,E)-N-(benzylsulfonyl)-4-((S)-2-((S)-3-(4′-methoxybiphenyl-4-yl)-3-methyl-2-(methylamino)butanamido)-N,3,3-trimethylbutanamido)-2,5-dimethylhex-2-enamide], the EC50 was 0.641 nM.

Turning to `CN[C@H](C(=O)N[C@H](C(=O)N(C)[C@H](/C=C(\C)C(=O)NS(=O)(=O)Cc1ccccc1)C(C)C)C(C)(C)C)C(C)(C)c1ccc(OC)cc1` [Compound 91, (S,E)-N-(benzylsulfonyl)-4-((S)-2-((S)-3-(4-methoxyphenyl)-3-methyl-2-(methylamino)butanamido)-N,3,3-trimethylbutanamido)-2,5-dimethylhex-2-enamide], the EC50 amounted to 0.109 nM.

As to `CN[C@@H](C(=O)N[C@H](C(=O)N(C)[C@H](/C=C(\C)C(=O)NS(=O)(=O)Cc1ccccc1)C(C)C)C(C)(C)C)C(C)(C)c1cccc(OC)c1` [Compound 92, (S,E)-N-(benzylsulfonyl)-4-((S)-2-((R)-3-(3-methoxyphenyl)-3-methyl-2-(methylamino)butanamido)-N,3,3-trimethylbutanamido)-2,5-dimethylhex-2-enamide], the EC50 stood at 0.485 nM.

Take `CN[C@H](C(=O)N[C@H](C(=O)N(C)[C@H](/C=C(\C)C(=O)NS(=O)(=O)Cc1ccccc1)C(C)C)C(C)(C)C)C(C)(C)c1cccc(OC)c1` [Compound 93, (S,E)-N-(benzylsulfonyl)-4-((S)-2-((S)-3-(3-methoxyphenyl)-3-methyl-2-(methylamino)butanamido)-N,3,3-trimethylbutanamido)-2,5-dimethylhex-2-enamide]: the concentration for a half-maximal effect (EC50) amounted to 0.196 nM.

`CN[C@H](C(=O)N[C@H](C(=O)N(C)[C@H](/C=C(\C)C(=O)NS(=O)(=O)Cc1ccccc1)C(C)C)C(C)(C)C)C(C)(C)c1ccc(OCCO)cc1` [Compound 94, (S,E)-N-(benzylsulfonyl)-4-((S)-2-((S)-3-(4-(2-hydroxyethoxy)phenyl)-3-methyl-2-(methylamino)butanamido)-N,3,3-trimethylbutanamido)-2,5-dimethylhex-2-enamide]: the EC50 was found to be 1.67 nM.

`CN[C@H](C(=O)N[C@H](C(=O)N(C)[C@H](/C=C(\C)C(=O)NS(=O)(=O)Cc1ccccc1)C(C)C)C(C)(C)C)C(C)(C)c1ccc(OCCSC(C)=O)cc1` [Compound 95, S-2-(4-((S)-4-((S)-1-(((S,E)-2,5-dimethyl-6-oxo-6-(benzylsulfonamido)hex-4-en-3-yl)(methyl)amino)-3,3-dimethyl-1-oxobutan-2-ylamino)-2-methyl-3-(methylamino)-4-oxobutan-2-yl)phenoxy)ethylethanethioate]: the EC50 is 0.288 nM.

Consider `CN[C@H](C(=O)N[C@H](C(=O)N(C)[C@H](/C=C(\C)C(=O)NS(=O)(=O)Cc1ccccc1)C(C)C)C(C)(C)C)C(C)(C)c1ccc(OCCN)cc1` [Compound 96, (S,E)-4-((S)-2-((S)-3-(4-(2-aminoethoxy)phenyl)-3-methyl-2-(methylamino)butanamido)-N,3,3-trimethylbutanamido)-N-(benzylsulfonyl)-2,5-dimethylhex-2-enamide], for which the EC50 turned out to be 10.3 nM.

With `CN[C@H](C(=O)N[C@H](C(=O)N(C)[C@H](/C=C(\C)C(=O)NS(=O)(=O)c1ccccc1NC(=O)C(F)(F)F)C(C)C)C(C)(C)C)C(C)(C)c1ccccc1` [Compound 97, (S,E)-2,5-dimethyl-N-(2-(2,2,2-trifluoroacetamido)phenylsulfonyl)-4-((S)—N,3,3-trimethyl-2-((S)-3-methyl-2-(methylamino)-3-phenylbutanamido)butanamido)hex-2-enamide], the EC50 amounted to 0.307 nM.

On to `CN[C@H](C(=O)N[C@H](C(=O)N(C)[C@H](/C=C(\C)C(=O)NS(=O)(=O)c1ccccc1N)C(C)C)C(C)(C)C)C(C)(C)c1ccccc1` [Compound 98, (S,E)-N-(2-aminophenylsulfonyl)-2,5-dimethyl-4-((S)—N,3,3-trimethyl-2-((S)-3-methyl-2-(methylamino)-3-phenylbutanamido)butanamido)hex-2-enamide], for which the EC50 was 0.077 nM.

In the case of `CN[C@H](C(=O)N[C@H](C(=O)N(C)[C@H](/C=C(\C)C(=O)NS(=O)(=O)Cc1cccc(C(F)(F)F)c1)C(C)C)C(C)(C)C)C(C)(C)c1ccccc1` [Compound 102, (S,E)-2,5-dimethyl-N-(3-(trifluoromethyl)benzylsulfonyl)-4-((S)—N,3,3-trimethyl-2-((S)-3-methyl-2-(methylamino)-3-phenylbutanamido)butanamido)hex-2-enamide], the EC50 came out at 0.289 nM.

Regarding `CN[C@H](C(=O)N[C@H](C(=O)N(C)[C@H](/C=C(\C)C(=O)NS(=O)(=O)Cc1cccc(OC(F)(F)F)c1)C(C)C)C(C)(C)C)C(C)(C)c1ccccc1` [Compound 103, (S,E)-2,5-dimethyl-N-(3-(trifluoromethoxy)benzylsulfonyl)-4-((S)—N,3,3-trimethyl-2-((S)-3-methyl-2-(methylamino)-3-phenylbutanamido)butanamido)hex-2-enamide], the EC50 came out at 0.209 nM.

`CN[C@H](C(=O)N[C@H](C(=O)N(C)[C@H](/C=C(\C)C(=O)NS(=O)(=O)Cc1ccc(Cl)c(Cl)c1)C(C)C)C(C)(C)C)C(C)(C)c1ccccc1` [Compound 104, (S,E)-N-(3,4-dichlorobenzylsulfonyl)-2,5-dimethyl-4-((S)—N,3,3-trimethyl-2-((S)-3-methyl-2-(methylamino)-3-phenylbutanamido)butanamido)hex-2-enamide]: the half-maximal effective concentration (EC50) was 0.272 nM.

Regarding `CN[C@H](C(=O)N[C@H](C(=O)N(C)[C@H](/C=C(\C)C(=O)NS(=O)(=O)Cc1ccccc1C#N)C(C)C)C(C)(C)C)C(C)(C)c1ccccc1` [Compound 105, (S,E)-N-(2-cyanobenzylsulfonyl)-2,5-dimethyl-4-((S)—N,3,3-trimethyl-2-((S)-3-methyl-2-(methylamino)-3-phenylbutanamido)butanamido)hex-2-enamide], the EC50 came to 0.731 nM.

The same experiment, now with this note: Table 6; Compound Cytotoxicity on Jurkat; read-out: EC50.
For `CN[C@H](C(=O)N[C@H](C(=O)N(C)[C@H](/C=C(\C)C(=O)NS(=O)(=O)Cc1ccccc1C#N)C(C)C)C(C)(C)C)C(C)(C)c1ccccc1` [Compound 105, (S,E)-N-(2-cyanobenzylsulfonyl)-2,5-dimethyl-4-((S)—N,3,3-trimethyl-2-((S)-3-methyl-2-(methylamino)-3-phenylbutanamido)butanamido)hex-2-enamide], the EC50 came out at 0.753 nM.
